Assay results: patent US7271198B2, “Method of treating autoimmune diseases” (Wake Forest University, priority 2000, dated 2007)

Key:
HDAC = details: statement from cited literature; cited from earlier work
IFN-γ mRNA = IFN-γ mRNA in MRL/lpr splenocytes; type: cell-based, mouse
Description: In determining whether TSA can down-regulate IFN-γ mRNA, splenocytes from older, 24-wk MRL/lpr mice were treated with 0 to 500 ng/ml of TSA for 18 hr. […] Compared to splenocytes from 10-wk old mice that had low IFN-γ mRNA (FIG. 8B, lane 1), older mice had higher constitutive levels of IFN-γ transcripts normalized to the housekeeping gene, GAPDH (FIG. 8A, lane 1). […] Maximal inhibition of IFN-γ transcript consistently occurred at 500 ng/ml of TSA.
To establish whether TSA or SAHA down-regulates Con A-induced IFN-γ mRNA expression, splenocytes from 10-wk old mice were stimulated with Con A (10 μg/ml) for 18 hr. From previous kinetic studies, IFN-γ mRNA is maximally expressed when T cells are activated for 18 hr. […] Thus, both TSA and SAHA inhibit IFN-γ. mRNA up-regulation in response to mitogenic stimulation.

[1] = test system: acetylated H3 and H4 histones; test: Immunoblot of acetylated H3 and H4 histones in MRL/lpr splenocytes; type: cell-based, mouse; details: 18 hr exposure
Text: One mechanism by which HDIs suppress transcription of cytokine genes in MRL/lpr splenocytes may be by increasing accumulation of acetylated histones which may result in chromatin remodeling. The accumulation of acetylated histones H3 and H4 in HDI-treated splenocytes was quantified to test this hypothesis. FIG. 12 is an immunoblot analysis of the acetylation levels of H3 and H4 histones.

TGF-β1 mRNA = test: PCR of TGF-β1 mRNA in SLE and control T cells / PBMCs; type: cell-based, human; details: SLE PBMCs exposed to TSA and SAHA (summary statement)
Description: (§1) Gene expression of TGF-β1 was tested to determine if the gene expression is suppressed by deacetylation of histones in SLE. In this determination, SLE PBMCs or isolated T cells were treated with the histone deacetylase inhibitors (HDIs), TSA or SAHA, for 18hr. […] Subsequently, semi-quantitative PCR was performed to determine the amounts of […] transcripts in SLE and control T cells treated with vehicle or TSA (1000 ng/ml). […] There is no change in GAPDH transcript in normal and SLE T cells after treatment of HDIs. Increased TGF-β1 transcript was associated with a subsequent increase in TGF-β1 protein secretion by SLE PBMCs. When compared to vehicle treated PBMCs, total TGF-β1 protein in culture supernatants from SLE PBMCs increased by approximately 30%. In contrast, there was no increase in total TGF-β1 secretion in TSA treated cells in normal healthy controls. Similar results may be obtained by SAHA.

IL-10 protein = IL-10 protein secretion by MRL/lpr splenocytes; type: cell-based, mouse; details: MRL/lpr splenocytes stimulated by LPS, Con A, or LPS+IFN-γ, 72 hr
Text: To determine the effect of TSA and SAHA on IL-10 protein secretion, MRL/lpr splenocytes were stimulated with Con A, LPS, or LPS+IFN-γ for 72 hr in the absence or presence of TSA or SAHA. As shown in the FIG. 11D, splenocytes stimulated with Con A, LPS, or LPS+IFN-γ secreted a mean (±SEM) of 31.8±4.5, 32.3±1.9, and 34.8±4.9 pg/ml, respectively, of IL-10 protein.

iNOS mRNA = iNOS mRNA induction in MRL/lpr splenocytes; type: cell-based, mouse; details: splenocytes from 10 wk old mice, LPS and IFN-γ 24 hr
Text: Excessive production of nitric oxide (NO) is crucial to the initiation and maintenance of glomerulonephritis in MRL/lpr mice. Pharmacologic inhibition of NO synthesis in MRL/lpr mice abrogates disease progression. In examining whether HDIs could suppress inducible nitric oxide synthetase (iNOS), splenocytes from 10 wk old mice were stimulated in the presence or absence of TSA or SAHA with LPS and IFN-γ for 24 hr. […] To determine whether HDIs could suppress nitric oxide secretion by mesangial cells, mesangial cells were stimulated with LPS ([…]) in the presence of vehicle or TSA for 24 hr. The supernatant from the cell culture was assayed for nitric oxide.

[2] = test system: acetylated H3 and H4 histones; test: Western immunoblot of acetylated H3 and H4 histones in SLE PBMCs; type: cell-based, human; details: 1000 ng/ml TSA or 20 μM SAHA, 18 hr
Description: The effect of TSA and SAHA was examined to determine if HDIs induce accumulation of acetylated histones in SLE PBMCs on the level of histone acetylation in SLE PBMCs. Following culture of PBMCs in the presence of vehicle, 1000 ng/ml TSA or 20 μM SAHA for 18 hr, histones were isolated.

IL-6 protein = IL-6 protein secretion by MRL/lpr splenocytes; type: cell-based, mouse; details: splenocytes with LPS and IFN-γ 72 hr; stimulated control 34.4±7.6 pg/ml; p=0.002
Description: (§2) In determining whether TSA or SAHA down-regulate IL-6 mRNA content, splenocytes from 24-wk MRL/lpr mice were treated with increasing concentrations of TSA for 18 hr. […] TSA decreased IL-6 transcript at a concentration of 100 ng/ml and exerted maximal inhibition at 300 ng/ml. To address whether TSA and SAHA down-regulate LPS- and IFN-γ induced IL-6 transcript levels, splenocytes from younger MRL/lpr mice were treated in the absence or presence of TSA or SAHA for 18 hr before LPS and IFN-γ stimulation for 6 or 18 hr. […] Next, the effect of TSA and SAHA on IL-6 protein secretion in stimulated splenocytes was measured (FIG. 10D). When splenocytes were cultured with LPS and IFN-γ for 72 hr, there was a mean (±SEM) 34.4±7.6 pg/ml of IL-6 protein secretion.

TGF-β1 protein = TGF-β1 protein secretion by PBMCs; type: cell-based, human; details: SLE PBMCs exposed to TSA and SAHA (summary statement)
Description: as §1

IFN-γ protein = IFN-γ protein secretion by MRL/lpr splenocytes; type: cell-based, mouse; details: Con A-stimulated splenocytes from younger MRL/lpr mice, 72 hr; p=0.004
Text: The marked inhibition of IFN-γ transcript by these inhibitors prompted us to quantify IFN-γ protein secretion in splenocyte culture supernatants. Over 72 hr, Con A, but not LPS, stimulated splenocytes from younger MRL/lpr mice to secrete a mean (±SEM) 1,563.2±88.3 pg/ml of IFN-γ (FIG. 8D). […] Thus, inhibition of IFN-γ transcription by TSA and SAHA blocks secretion of IFN-γ protein by splenocytes.

IL-12 p40 protein = IL-12 p40 protein secretion by MRL/lpr splenocytes; type: cell-based, mouse; details: splenocytes stimulated with LPS and IFN-γ 24 hr; stimulated control 45.3±9.1; p=0.003
Description: When splenocytes were activated with LPS (100 μg/ml) and IFN-γ 100U/ml) for 24 hr the mean (±SEM) IL-12 p40 secretion was 45.3±9.1 pg/ml.

IL-10 mRNA = IL-10 mRNA in MRL/lpr splenocytes; type: cell-based, mouse; details: splenocytes from 10-wk old MRL/lpr mice pretreated 18 hr, stimulated 6 or 18 hr
Description: In investigating whether TSA down-regulates IL-10 mRNA, MRL/lpr splenocytes were treated with increasing concentrations of TSA. The heightened, constitutive expression of IL-10 mRNA confirms previous findings (FIGS. 11A & 11B, lane 1). […] To address whether TSA and SAHA down-regulate LPS- and IFN-γ induced IL-10 transcript, splenocytes from 10-wk old MRL/lpr mice were treated in the absence or presence of TSA or SAHA for 18 hr before LPS and IFN-γ stimulation for 6 or 18 hr.

[3] = test system: IL-12 p35 and p40 transcripts; test: IL-12 p35 and p40 transcripts in MRL/lpr splenocytes; type: cell-based, mouse; details: splenocytes from 10-wk old MRL/lpr mice preincubated 18 hr, stimulated 6 or 18 hr
Description: In this study, the question of whether TSA down-regulates transcription of both IL-12 p35 and p40 subunit mRNA was investigated. […] Splenocytes were stimulated with LPS and IFN-γ for 6 or 18 hr. […] When splenocytes were preincubated with TSA or SAHA for 18 hr and then stimulated with LPS and IFN-γ IL-12 p35 and p40 transcripts were undetectable (FIGS. 9B–D).

IL-6 mRNA = IL-6 mRNA in MRL/lpr splenocytes; type: cell-based, mouse; details: splenocytes from younger MRL/lpr mice pretreated 18 hr, stimulated 6 or 18 hr
Description: as §2

In the case of `CCOC(=O)C(CCCCCC(=O)N(C)C)(CCCCCC(=O)N(C)C)C(=O)OCC` [EMBA, Diethyl bix(pentamethylene-N,N-dimethylcarboxamide) malonate], the HDAC inhibition (HDAC) is listed as “not effective as HDAC Inhibitors”.

For `CC(=O)NCCCCCCNC(C)=O` [HBMA, Hexamethylene bisacetamide], the HDAC inhibition (HDAC) is listed as “not effective as HDAC Inhibitors”.

For `O=C(CCCCCCC(=O)Nc1ccccc1)NO` [SAHA, Suberoylanilide Hydroxamic Acid], the “optimal dose in dose titration experiments” value (IFN-γ mRNA; MRL/lpr splenocytes, data not shown) was 10 µM, the “Con A-induced up-regulation of IFN-γ transcript” value (IFN-γ mRNA; splenocytes from 10-wk old mice preincubated 18 hr, Con A 10 μg/ml 18 hr, vs vehicle) was “markedly reduced” and the “accumulation of acetylated H3 and H4 histones” value [1] was “marked increase”. For the same compound, the “increase in TGF-β1 transcript” value (TGF-β1 mRNA) was “eight-fold”, the IL-10 protein secretion (IL-10 protein) was “no detectable IL-10 secretion” and the “iNOS mRNA induction” value (iNOS mRNA) was “able to suppress iNOS mRNA induction”. The “accumulation of acetylated H3 and H4 histones” value [2] was “induced the accumulation”, the IL-6 protein secretion (IL-6 protein) was “no detectable IL-6 protein secretion” and the “rise in the synthesis of TGF-β1 protein” value (TGF-β1 protein) was 30%. The IFN-γ protein secretion (IFN-γ protein) was “did not secrete detectable levels”, the “IL-12 p40 secretion (mean±SEM)” value (IL-12 p40 protein) was 9.1 ± 1.9 pg/mL and the “LPS- and IFN-γ induced IL-10 mRNA” value (IL-10 mRNA) was “no detectable IL-10 mRNA”. The “LPS and IFN-γ induced IL-12 p35 and p40 transcripts” value [3] was “undetectable” and the “LPS- and IFN-γ induced IL-6 mRNA” value (IL-6 mRNA) was “no detectable IL-6 mRNA”.

For mono-MTM-depudecin, the HDAC inhibition (HDAC) is listed as “do not inhibit HDAC”.
